Test results: ChEMBL document CHEMBL4376833, “Influence of Non-natural Cationic Amino Acids on the Biological Activity Profile of Innate Defense Regulator Peptides” (J Med Chem, 2019)
Active and inactive are the calls of the source. How the calls were made is not given here. Non-standard residues stand in square brackets, D forms with d. Residues, ends and D or L forms follow the SMILES beside them. hArg = N=C(N)NCCCC[C@H](N)C(=O)O; Agb = N=C(N)NCC[C@H](N)C(=O)O; Agp = N=C(N)NC[C@H](N)C(=O)O; Orn = NCCC[C@H](N)C(=O)O; Dab = NCC[C@H](N)C(=O)O; Dap = NC[C@H](N)C(=O)O

Tests used:
Staphylococcus aureus [1] = experiment: Antibiofilm activity against methicillin-resistant Staphylococcus aureus assessed as inhibition of biofilm formation incubated for overnight by crystal violet staining based microtiter plate assay; format: functional, organism-based
Staphylococcus aureus [2] = experiment: Antibiofilm activity against methicillin-resistant Staphylococcus aureus assessed as inhibition of biofilm formation by measuring residual biofilm growth incubated for overnight at 10-fold dilution by crystal violet staining based microtiter plate assay relative to control; format: functional
Staphylococcus aureus [3] = experiment: Antibacterial activity against methicillin-resistant Staphylococcus aureus assessed as alteration in bacterial growth incubated for overnight by microtiter plate based spectrophotometric analysis; format: functional, organism-based

| Compound | inhibition (Staphylococcus aureus [1]) | residual biofilm growth (% of control) (Staphylococcus aureus [2]) [%] | Activity (Staphylococcus aureus [3]) |
| --- | --- | --- | --- |
| CC[C@H](C)[C@H](NC(=O)[C@H](CCCNC(=N)N)NC(=O)[C@@H](NC(=O)[C@H](C)NC(=O)[C@@H](NC(=O)[C@@H](NC(=O)[C@H](CC(C)C)NC(=O)[C@H](CCCNC(=N)N)NC(=O)[C@@H](N)C(C)C)[C@@H](C)CC)C(C)C)C(C)C)C(=O)N[C@@H](CCN)C(=O)N[C@@H](CCCNC(=N)N)C(=O)N[C@@H](CCCNC(=N)N)C(N)=O (H-VRLIVAVRI[Dab]RR-NH2) | Dose-dependent effect | 90.8 | Active |
| CC[C@H](C)[C@H](NC(=O)[C@H](CCCNC(=N)N)NC(=O)[C@@H](NC(=O)[C@H](C)NC(=O)[C@@H](NC(=O)[C@@H](NC(=O)[C@H](CC(C)C)NC(=O)[C@H](CCCNC(=N)N)NC(=O)[C@@H](N)C(C)C)[C@@H](C)CC)C(C)C)C(C)C)C(=O)N[C@@H](CN)C(=O)N[C@@H](CCCNC(=N)N)C(=O)N[C@@H](CCCNC(=N)N)C(N)=O (H-VRLIVAVRI[Dap]RR-NH2) | Dose-dependent effect | 15 | Active |
| CC[C@H](C)[C@H](NC(=O)[C@H](CCCNC(=N)N)NC(=O)[C@@H](NC(=O)[C@H](C)NC(=O)[C@@H](NC(=O)[C@@H](NC(=O)[C@H](CC(C)C)NC(=O)[C@H](CCCNC(=N)N)NC(=O)[C@@H](N)C(C)C)[C@@H](C)CC)C(C)C)C(C)C)C(=O)N[C@@H](CCCN)C(=O)N[C@@H](CCCNC(=N)N)C(=O)N[C@@H](CCCNC(=N)N)C(N)=O (H-VRLIVAVRI[Orn]RR-NH2) | Dose-dependent effect | 39.3 | Active |
| CC[C@H](C)[C@H](NC(=O)[C@H](CCCNC(=N)N)NC(=O)[C@@H](NC(=O)[C@H](C)NC(=O)[C@@H](NC(=O)[C@@H](NC(=O)[C@H](CC(C)C)NC(=O)[C@H](CCCNC(=N)N)NC(=O)[C@@H](N)C(C)C)[C@@H](C)CC)C(C)C)C(C)C)C(=O)N[C@@H](CCCCNC(=N)N)C(=O)N[C@@H](CCCNC(=N)N)C(=O)N[C@@H](CCCNC(=N)N)C(N)=O (H-VRLIVAVRI[hArg]RR-NH2) | Dose-dependent effect | 37.2 | Active |
| CC[C@H](C)[C@H](NC(=O)[C@H](CC(C)C)NC(=O)[C@H](CCCNC(=N)N)NC(=O)[C@@H](N)C(C)C)C(=O)N[C@H](C(=O)N[C@@H](C)C(=O)N[C@H](C(=O)N[C@@H](CCCNC(=N)N)C(=O)N[C@@H](CCNC(=N)N)C(=O)N[C@@H](Cc1c[nH]c2ccccc12)C(=O)N[C@@H](CCCNC(=N)N)C(=O)N[C@@H](CCCNC(=N)N)C(N)=O)C(C)C)C(C)C (H-VRLIVAVR[Agb]WRR-NH2) | Dose-dependent effect | 103.6 | Active |
| CC[C@H](C)[C@H](NC(=O)[C@H](CC(C)C)NC(=O)[C@H](CCCNC(=N)N)NC(=O)[C@@H](N)C(C)C)C(=O)N[C@H](C(=O)N[C@@H](C)C(=O)N[C@H](C(=O)N[C@@H](CCCNC(=N)N)C(=O)N[C@@H](CNC(=N)N)C(=O)N[C@@H](Cc1c[nH]c2ccccc12)C(=O)N[C@@H](CCCNC(=N)N)C(=O)N[C@@H](CCCNC(=N)N)C(N)=O)C(C)C)C(C)C (H-VRLIVAVR[Agp]WRR-NH2) | Dose-dependent effect | 104.1 | Active |
| CC[C@H](C)[C@H](NC(=O)[C@H](CC(C)C)NC(=O)[C@H](CCCNC(=N)N)NC(=O)[C@@H](N)C(C)C)C(=O)N[C@H](C(=O)N[C@@H](C)C(=O)N[C@H](C(=O)N[C@@H](CCCNC(=N)N)C(=O)N[C@@H](CCN)C(=O)N[C@@H](Cc1c[nH]c2ccccc12)C(=O)N[C@@H](CCCNC(=N)N)C(=O)N[C@@H](CCCNC(=N)N)C(N)=O)C(C)C)C(C)C (H-VRLIVAVR[Dab]WRR-NH2) | Dose-dependent effect | 102 | Active |
| CC[C@H](C)[C@H](NC(=O)[C@H](CC(C)C)NC(=O)[C@H](CCCNC(=N)N)NC(=O)[C@@H](N)C(C)C)C(=O)N[C@H](C(=O)N[C@@H](C)C(=O)N[C@H](C(=O)N[C@@H](CCCNC(=N)N)C(=O)N[C@@H](CN)C(=O)N[C@@H](Cc1c[nH]c2ccccc12)C(=O)N[C@@H](CCCNC(=N)N)C(=O)N[C@@H](CCCNC(=N)N)C(N)=O)C(C)C)C(C)C (H-VRLIVAVR[Dap]WRR-NH2) | Dose-dependent effect | 51.8 | Active |
| CC[C@H](C)[C@H](NC(=O)[C@H](CC(C)C)NC(=O)[C@H](CCCNC(=N)N)NC(=O)[C@@H](N)C(C)C)C(=O)N[C@H](C(=O)N[C@@H](C)C(=O)N[C@H](C(=O)N[C@@H](CCCNC(=N)N)C(=O)N[C@@H](CCCN)C(=O)N[C@@H](Cc1c[nH]c2ccccc12)C(=O)N[C@@H](CCCNC(=N)N)C(=O)N[C@@H](CCCNC(=N)N)C(N)=O)C(C)C)C(C)C (H-VRLIVAVR[Orn]WRR-NH2) | Dose-dependent effect | 79.3 | Active |
| CC[C@H](C)[C@H](NC(=O)[C@H](CC(C)C)NC(=O)[C@H](CCCNC(=N)N)NC(=O)[C@@H](N)C(C)C)C(=O)N[C@H](C(=O)N[C@@H](C)C(=O)N[C@H](C(=O)N[C@@H](CCCNC(=N)N)C(=O)N[C@@H](CCCCNC(=N)N)C(=O)N[C@@H](Cc1c[nH]c2ccccc12)C(=O)N[C@@H](CCCNC(=N)N)C(=O)N[C@@H](CCCNC(=N)N)C(N)=O)C(C)C)C(C)C (H-VRLIVAVR[hArg]WRR-NH2) | Dose-dependent effect | 84.7 | Active |
| CC[C@H](C)[C@H](NC(=O)[C@H](CCNC(=N)N)NC(=O)[C@@H](NC(=O)[C@H](C)NC(=O)[C@@H](NC(=O)[C@@H](NC(=O)[C@H](CC(C)C)NC(=O)[C@H](CCCNC(=N)N)NC(=O)[C@@H](N)C(C)C)[C@@H](C)CC)C(C)C)C(C)C)C(=O)N[C@@H](Cc1c[nH]c2ccccc12)C(=O)N[C@@H](CCCNC(=N)N)C(=O)N[C@@H](CCCNC(=N)N)C(N)=O (H-VRLIVAV[Agb]IWRR-NH2) | Dose-dependent effect | 103.5 | Active |
| CC[C@H](C)[C@H](NC(=O)[C@H](CNC(=N)N)NC(=O)[C@@H](NC(=O)[C@H](C)NC(=O)[C@@H](NC(=O)[C@@H](NC(=O)[C@H](CC(C)C)NC(=O)[C@H](CCCNC(=N)N)NC(=O)[C@@H](N)C(C)C)[C@@H](C)CC)C(C)C)C(C)C)C(=O)N[C@@H](Cc1c[nH]c2ccccc12)C(=O)N[C@@H](CCCNC(=N)N)C(=O)N[C@@H](CCCNC(=N)N)C(N)=O (H-VRLIVAV[Agp]IWRR-NH2) | Dose-dependent effect | 102.2 | Active |
| CC[C@H](C)[C@H](NC(=O)[C@H](CCN)NC(=O)[C@@H](NC(=O)[C@H](C)NC(=O)[C@@H](NC(=O)[C@@H](NC(=O)[C@H](CC(C)C)NC(=O)[C@H](CCCNC(=N)N)NC(=O)[C@@H](N)C(C)C)[C@@H](C)CC)C(C)C)C(C)C)C(=O)N[C@@H](Cc1c[nH]c2ccccc12)C(=O)N[C@@H](CCCNC(=N)N)C(=O)N[C@@H](CCCNC(=N)N)C(N)=O (H-VRLIVAV[Dab]IWRR-NH2) | Dose-dependent effect | 103.9 | Active |
| CC[C@H](C)[C@H](NC(=O)[C@H](CN)NC(=O)[C@@H](NC(=O)[C@H](C)NC(=O)[C@@H](NC(=O)[C@@H](NC(=O)[C@H](CC(C)C)NC(=O)[C@H](CCCNC(=N)N)NC(=O)[C@@H](N)C(C)C)[C@@H](C)CC)C(C)C)C(C)C)C(=O)N[C@@H](Cc1c[nH]c2ccccc12)C(=O)N[C@@H](CCCNC(=N)N)C(=O)N[C@@H](CCCNC(=N)N)C(N)=O (H-VRLIVAV[Dap]IWRR-NH2) | Dose-dependent effect | 26.8 | Active |
| CC[C@H](C)[C@H](NC(=O)[C@H](CCCN)NC(=O)[C@@H](NC(=O)[C@H](C)NC(=O)[C@@H](NC(=O)[C@@H](NC(=O)[C@H](CC(C)C)NC(=O)[C@H](CCCNC(=N)N)NC(=O)[C@@H](N)C(C)C)[C@@H](C)CC)C(C)C)C(C)C)C(=O)N[C@@H](Cc1c[nH]c2ccccc12)C(=O)N[C@@H](CCCNC(=N)N)C(=O)N[C@@H](CCCNC(=N)N)C(N)=O (H-VRLIVAV[Orn]IWRR-NH2) | Dose-dependent effect | 14 | Active |
| CC[C@H](C)[C@H](NC(=O)[C@H](CCCCNC(=N)N)NC(=O)[C@@H](NC(=O)[C@H](C)NC(=O)[C@@H](NC(=O)[C@@H](NC(=O)[C@H](CC(C)C)NC(=O)[C@H](CCCNC(=N)N)NC(=O)[C@@H](N)C(C)C)[C@@H](C)CC)C(C)C)C(C)C)C(=O)N[C@@H](Cc1c[nH]c2ccccc12)C(=O)N[C@@H](CCCNC(=N)N)C(=O)N[C@@H](CCCNC(=N)N)C(N)=O (H-VRLIVAV[hArg]IWRR-NH2) | Dose-dependent effect | 26.3 | Active |
| CC[C@H](C)[C@H](NC(=O)[C@H](CCCNC(=N)N)NC(=O)[C@H](CCNC(=N)N)NC(=O)[C@H](C)NC(=O)[C@@H](NC(=O)[C@@H](NC(=O)[C@H](CC(C)C)NC(=O)[C@H](CCCNC(=N)N)NC(=O)[C@@H](N)C(C)C)[C@@H](C)CC)C(C)C)C(=O)N[C@@H](Cc1c[nH]c2ccccc12)C(=O)N[C@@H](CCCNC(=N)N)C(=O)N[C@@H](CCCNC(=N)N)C(N)=O (H-VRLIVA[Agb]RIWRR-NH2) | Dose-dependent effect | 104.1 | Active |
| CC[C@H](C)[C@H](NC(=O)[C@H](CCCNC(=N)N)NC(=O)[C@H](CNC(=N)N)NC(=O)[C@H](C)NC(=O)[C@@H](NC(=O)[C@@H](NC(=O)[C@H](CC(C)C)NC(=O)[C@H](CCCNC(=N)N)NC(=O)[C@@H](N)C(C)C)[C@@H](C)CC)C(C)C)C(=O)N[C@@H](Cc1c[nH]c2ccccc12)C(=O)N[C@@H](CCCNC(=N)N)C(=O)N[C@@H](CCCNC(=N)N)C(N)=O (H-VRLIVA[Agp]RIWRR-NH2) | Dose-dependent effect | 106.7 | Active |
